{
  "source": "patent US20260132128A1",
  "about": "“COMPOUND FOR RECOVERING P53 MUTATION FUNCTION AND USE THEREOF” (SHENZHEN ZHONGGE BIOLOGICAL TECHNOLOGY CO., LTD., priority 2022, published 2026)",
  "key": {"p53 Y220C": {"molecular_target": "T1, p53 Y220C (Homo sapiens, UniProt P04637, P309S/R273H/Y220C)", "T1 construct": "a truncated mutant containing only amino acids 94-312 of p53; made in house; host or cells: E. coli", "T1 sequence (P04637 94-312, stated change not applied)": "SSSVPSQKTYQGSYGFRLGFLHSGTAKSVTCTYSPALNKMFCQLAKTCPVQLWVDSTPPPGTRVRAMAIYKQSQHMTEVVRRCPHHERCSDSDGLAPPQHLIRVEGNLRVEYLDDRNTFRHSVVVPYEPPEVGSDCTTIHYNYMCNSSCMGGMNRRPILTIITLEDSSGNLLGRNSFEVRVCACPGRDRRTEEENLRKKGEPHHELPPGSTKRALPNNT", "experiment": "DNA binding test (HTRF): binding of P53Y220C protein to DNA", "format": "biochemical", "details": "HTRF, activation of p53 Y220C (aa 94-312) binding to biotin DNA"}, "CYP 3A4": {"molecular_target": "T2, CYP 3A4 (Homo sapiens, UniProt P08684)", "T2 construct": "purchased BioIVT X008067", "T2 sequence (P08684 whole entry)": "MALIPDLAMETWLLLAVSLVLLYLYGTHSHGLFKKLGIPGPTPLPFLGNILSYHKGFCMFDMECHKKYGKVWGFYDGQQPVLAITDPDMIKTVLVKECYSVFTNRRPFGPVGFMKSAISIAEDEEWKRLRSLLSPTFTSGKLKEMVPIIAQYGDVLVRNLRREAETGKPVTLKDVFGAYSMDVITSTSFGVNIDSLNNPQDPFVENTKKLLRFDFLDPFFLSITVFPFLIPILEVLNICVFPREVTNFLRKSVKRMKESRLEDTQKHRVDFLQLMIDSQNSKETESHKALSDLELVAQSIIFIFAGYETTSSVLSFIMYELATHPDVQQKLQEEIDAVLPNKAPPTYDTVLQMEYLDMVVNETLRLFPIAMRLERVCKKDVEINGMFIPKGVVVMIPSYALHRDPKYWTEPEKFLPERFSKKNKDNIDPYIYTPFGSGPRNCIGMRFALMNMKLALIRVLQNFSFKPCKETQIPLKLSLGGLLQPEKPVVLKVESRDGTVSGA", "experiment": "CYP 3A4 time-dependent inhibition test", "format": "in vitro ADME", "details": "midazolam substrate", "experimental": "CYP 3A4 and the test compound or mifepristone of various concentrations were added to a 96-deep well plate for pre-incubation. The plate was placed in a water bath and preheated at 37° C. for 5 min. For the 0 min pre-incubation samples, midazolam substrate was added to the incubation plate, then 10 mM NADPH solution was added, and the reaction was carried out in a 37° C. water bath for 5 min; for the 30 min pre-incubation samples with NADPH, 10 mM NADPH solution was added to the incubation plate, pre-incubated in a 37° C. water bath for 30 min, and then midazolam substrate was added and reacted in a 37° C. water bath for 5 min; for the 30 min pre-incubation samples without NADPH, the incubation plate was pre-incubated in a 37° C. water bath for 30 min, then midazolam substrate was added, 10 mM NADPH solution was added, and the reaction was carried out in a 37° C. water bath for 5 min. After the reaction was completed, the quenching solution (500 nM tolbutamide (Bide Pharmaceuticals, Cat. No. BD154332) and 10 nM terfenadine (Sigma, Cat. No. T96532)) were added to quench the reaction, and the plate was centrifuged at 3,220 g for 40 min at 4° C. The supernatant was pipetted into a new plate, the supernatant was diluted with pure water and mixed well, and the sample was analyzed using UPLC-MS/MS."}, "[1]": {"details": "0 min pre-incubation, read-out: IC50 (μM) 0 min"}, "[2]": {"details": "30 min pre-incubation with NADPH, read-out: IC50 (μM) 30 min, with NADPH"}, "[3]": {"details": "30 min pre-incubation without NADPH, read-out: IC50 (μM) 30 min, without NADPH"}},
  "note": "Where two headings read alike, the source gives them in different places.",
  "data": [
    {"molecule": "CNC(=O)c1ccc(NCC#Cc2nc3c(NC4CCC(N5CC6(COC6)C5)CC4F)cccn3c2CC(F)(F)F)c(OC)c1", "note": "(single isomer, unassigned) [Compound 35-6i]", "values": [
      {"measurement": "EC50", "setting": "p53 Y220C", "result": "< 0.1", "unit": "µM"},
      {"measurement": "IC50", "setting": "CYP 3A4; [1]", "result": 7.48, "unit": "µM"},
      {"measurement": "IC50", "setting": "CYP 3A4; [2]", "result": 3.01, "unit": "µM"},
      {"measurement": "IC50", "setting": "CYP 3A4; [3]", "result": 7.46, "unit": "µM"}
    ]},
    {"molecule": "[2H]C([2H])([2H])NC(=O)c1ccc(NCC#Cc2cc3c(NC4CCC(N5CC6(COC6)C5)CC4F)cccn3c2CC(F)(F)F)c(OC([2H])([2H])[2H])c1", "note": "(single isomer, unassigned) [Compound 74d]", "values": [
      {"measurement": "EC50", "setting": "p53 Y220C", "result": "< 0.1", "unit": "µM"},
      {"measurement": "IC50", "setting": "CYP 3A4; [1]", "result": 4.55, "unit": "µM"},
      {"measurement": "IC50", "setting": "CYP 3A4; [2]", "result": 1.56, "unit": "µM"},
      {"measurement": "IC50", "setting": "CYP 3A4; [3]", "result": 5.91, "unit": "µM"}
    ]},
    {"molecule": "COc1cc(C(=O)NC2CC2)ccc1NCC#Cc1nc2c(NC3CC[C@@H](N4CC5(COC5)C4)C[C@@H]3F)cccn2c1CC(F)(F)F", "note": "(some centres unmarked) [Compound 54]", "values": [
      {"measurement": "EC50", "setting": "p53 Y220C", "result": "< 0.1", "unit": "µM"}
    ]},
    {"molecule": "CNC(=O)c1ccc(NCC#Cc2nc3c(N[C@@H]4CCN(C)C[C@@H]4F)cccn3c2CC(F)(F)F)c(OC)c1", "note": "[Compound 5]", "values": [
      {"measurement": "EC50", "setting": "p53 Y220C", "result": "< 0.1", "unit": "µM"},
      {"measurement": "IC50", "setting": "CYP 3A4; [1]", "result": 8.05, "unit": "µM"},
      {"measurement": "IC50", "setting": "CYP 3A4; [2]", "result": 1.89, "unit": "µM"},
      {"measurement": "IC50", "setting": "CYP 3A4; [3]", "result": 8.36, "unit": "µM"}
    ]},
    {"molecule": "[2H]C([2H])([2H])NC(=O)c1ccc(NCC#Cc2nc3c(NC4CC[C@@H](N5CC6(COC6)C5)C[C@@H]4F)cccn3c2CC(F)(F)F)c(OC([2H])([2H])[2H])c1", "note": "(some centres unmarked) [Compound 64]", "values": [
      {"measurement": "EC50", "setting": "p53 Y220C", "result": "< 0.1", "unit": "µM"}
    ]}
  ]
}
